How the values were obtained:
[1] = PET/CT, biodistribution and elimination in control SCID mice; format: in vivo, mouse; details: intravenous
Experimental: [^18F]AmBF3-Tz ([^18F]4) was formulated in 10% ethanol in 0.01 M PBS and administered intravenously to SCID mice. The PET/CT image was acquired with Inveon PET/CT and Molecubes PET and CT.
[^18F]AmBF3-Tz ([^18F]4) was formulated in 10% ethanol in 0.01 M PBS and administered intravenously to SCID mice. The standardized uptake values (SUVs) presenting the elimination profile (FIGS. 13a and 13b) were determined from the PET image by drawing regions-of-interest (ROI) around selected organs (heart, liver, kidney, lung, muscle, urinary bladder) and by measuring the ratio of radioactivity per unit volume of that ROI and normalized to the injected dose.

B16/F10 melanoma cells = test: Nonspecific B16/F10 melanoma cell-uptake (free, membrane-bound, internalized fractions); format: cell-based, mouse; details: for radioactivity in the free fraction outside the cells: n=3
Experimental: Rat pancreatic tumor cell line AR42J that expresses SSTR was obtained from American Type Culture Collection (Manassas, VA). C4-2 cells (ATCC® CRL-3314™) were cultured in DMEM medium (Gibco) supplemented with 18% F12 medium (Sigma), 10% FBS (Gibco) and 1% T-medium. Both cell lines were grown in at 37° C. in a humidified incubator containing 5% C02. Cells grown to 80%-90% confluence were used for either in vitro or in vivo experiments. Mouse skin melanoma B16/F10 cells were cultured in CO2 Independent Medium (Life Technologies Gibco, cat. #18045054) supplemented with GlutaMax (1× final concentration, 10% FBS and Pen-Strep at 37° C. in a humidified incubator. The B16/F10 cell viability was 97%. The C4-2 cells (ATCC® CRL-3314™) were cultured in DMEM medium (Gibco) supplemented with 18% F12 medium (Sigma), 10% FBS (Gibco) and 1% T-medium. Both cell lines were grown in at 37° C. in a humidified incubator containing 5% C02. Cells grown to 80%-90% confluence were used for either in vitro or in vivo experiments.
500 000 cells/well were seeded overnight on 6-well plates. The growth media was removed and the reaction media containing the radiotracer [^18F]4 was added. […] The membrane-bound fraction was collected by adding cold glycine buffer (1 mL) on the cells, incubating for 5 minutes on an ice bath, removing the supernatant, repeating the procedure, and washing the cells with cold 1×PBS, and collecting all the supernatants to the same microtube. For determining the internalized fraction, 1 M NaOH was added on the cells and left to incubate in ambient temperature for 10 minutes. The supernatant was removed and the cells were washed twice with cold 1×PBS, and the supernatants were collected into the same microtube. The supernatants collected separately in each phase, were measure with a gamma counter for determining the radioactivity-ratio (%) of each fraction. […] The radioactivity distribution between the aforementioned fractions is depicted in FIG. 9.

Q: What does the source list for `C[N+](C)(CCNC(=O)Cc1ccc(-c2nncnn2)cc1)C[B-](F)(F)F` [[^18F]4, {[(2-{2-[4-(1,2,4,5-tetrazin-3-yl)phenyl]acetamido}ethyl)dimethylammonio]methyl}trifluoroborate]?
A: main elimination route [1]: through kidneys; in vivo stability (bone uptake) ([1]; PET/CT and biodistribution): excellent stability; radioactivity in the free fraction outside the cells (B16/F10 melanoma cells; B16/F10 cells, 15 min): 99.3±0.09%; radioactivity in the free fraction outside the cells (B16/F10 melanoma cells; B16/F10 cells, 240 min): 99.3±0.08%; % of total radioactivity in the free fraction (B16/F10 melanoma cells; B16/F10 cells, at each time point (FIG. 9)): Over 99%; nonspecific uptake in B16/F10 cells (B16/F10 melanoma cells; throughout the study): did not demonstrate nonspecific uptake
